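Assay format: 96-well plates, 48-hour exposure. GI50 marks 50% less growth.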 The source made the active and inactive calls. No stated cut-off is given here; in the data, active = GI50 up to about 1.1 µM and inactive = higher.
Key:
Assay in all cases: NCI tumour cell line growth inhibition, 48 h
LOX IMVI = test system: LOX IMVI
OVCAR-4 = test system: OVCAR-4
IGROV-1 = test system: IGROV-1
SW-620 = test system: SW-620
COLO 205 = test system: COLO 205
HL-60 = test system: HL-60
CAKI-1 = test system: CAKI-1
LXFL 529 = test system: LXFL 529
M14 = test system: M14
UACC-257 = test system: UACC-257
NCI-H522 = test system: NCI-H522
OVCAR-5 = test system: OVCAR-5
RXF 393 = test system: RXF 393
A498 = test system: A498
HCC 2998 = test system: HCC 2998
Hs-578T = test system: Hs-578T
NCI/ADR-RES = test system: NCI/ADR-RES
MDA-MB-231 = test system: MDA-MB-231
PC-3 = test system: PC-3
MCF7 = test system: MCF7

Measured: GI50

CCOC(=O)c1cc(/C=C/C(C)=C/C(=O)OC)oc1C
inactive: LOX IMVI > 100 µM | OVCAR-4 > 100 µM | IGROV-1 > 100 µM | SW-620 > 100 µM | COLO 205 > 100 µM | HL-60 > 100 µM | CAKI-1 > 100 µM | LXFL 529 > 100 µM | M14 > 100 µM | UACC-257 > 100 µM | NCI-H522 45.6 µM | OVCAR-5 > 100 µM

CCn1sc2ccccc2c1=O
inactive: LOX IMVI 2.61 µM | OVCAR-4 7.1 µM | RXF 393 4.81 µM | IGROV-1 6.73 µM | A498 37.8 µM | SW-620 6.35 µM | COLO 205 9.55 µM | HL-60 3.78 µM | CAKI-1 3.43 µM | HCC 2998 17.4 µM | Hs-578T 16.4 µM | NCI/ADR-RES 18.2 µM | M14 4.97 µM | UACC-257 14.8 µM | NCI-H522 1.6 µM | MDA-MB-231 9.57 µM | OVCAR-5 9.1 µM | PC-3 14.3 µM | MCF7 8.77 µM

Cc1cc(=O)oc2cc(OC(=O)N(CCCl)CCCl)ccc12
inactive: LOX IMVI 59.8 µM | OVCAR-4 > 100 µM | RXF 393 > 100 µM | IGROV-1 94.4 µM | A498 > 100 µM | SW-620 > 100 µM | COLO 205 > 100 µM | HL-60 > 100 µM | CAKI-1 > 100 µM | HCC 2998 > 100 µM | Hs-578T > 100 µM | NCI/ADR-RES 99.1 µM | M14 > 100 µM | UACC-257 > 100 µM | NCI-H522 79.1 µM | MDA-MB-231 > 100 µM | OVCAR-5 > 100 µM | PC-3 46.8 µM | MCF7 > 100 µM

O=C(/C=C/c1ccc[nH]1)c1ccccc1
inactive: LOX IMVI > 100 µM | OVCAR-4 > 100 µM | RXF 393 > 100 µM | SW-620 > 100 µM | COLO 205 > 100 µM | HL-60 41.2 µM | CAKI-1 > 100 µM | LXFL 529 > 100 µM | M14 > 100 µM | UACC-257 > 100 µM | NCI-H522 > 100 µM | OVCAR-5 > 100 µM

COC(=O)c1c(O)ccc2c1c1cc3ccccc3cc1n2Cc1cc(OC)cc(OC)c1
inactive: LOX IMVI 9.31 µM | OVCAR-4 9.84 µM | RXF 393 3.96 µM | A498 9.02 µM | SW-620 3.61 µM | COLO 205 10.1 µM | HL-60 2.92 µM | CAKI-1 2.18 µM | HCC 2998 3.88 µM | Hs-578T 2.45 µM | NCI/ADR-RES 1.4 µM | M14 2.25 µM | UACC-257 9.73 µM | MDA-MB-231 6.55 µM | OVCAR-5 9.64 µM | PC-3 2.46 µM | MCF7 1.73 µM
active: IGROV-1 0.678 µM | NCI-H522 0.194 µM

C[C@H]1C=C2[C@@H]3CC(C)(C(=O)O)CC[C@]3(C)CC[C@]2(C)[C@]2(C)CC[C@H]3C(C)(C)[C@@H](OC(=O)c4cccc5c(=O)c6ccccc6[nH]c45)CC[C@]3(C)[C@@H]12 (some centres not stated)
inactive: LOX IMVI 57 µM | OVCAR-4 80.4 µM | RXF 393 > 100 µM | IGROV-1 > 100 µM | A498 79.1 µM | SW-620 > 100 µM | COLO 205 58.1 µM | HL-60 38.4 µM | CAKI-1 > 100 µM | HCC 2998 88.7 µM | Hs-578T > 100 µM | NCI/ADR-RES 54.6 µM | M14 61 µM | UACC-257 29.7 µM | NCI-H522 28.8 µM | MDA-MB-231 > 100 µM | OVCAR-5 > 100 µM | PC-3 38.2 µM | MCF7 40 µM

O=C(O)C1=NN(c2ccc(S(=O)(=O)O)cc2)C2(C1)SCC(=O)N2c1nc2ccccc2s1 (configuration not stated)
inactive: LOX IMVI > 100 µM | OVCAR-4 > 100 µM | RXF 393 > 100 µM | IGROV-1 > 100 µM | A498 > 100 µM | SW-620 > 100 µM | COLO 205 > 100 µM | HL-60 > 100 µM | CAKI-1 > 100 µM | HCC 2998 > 100 µM | Hs-578T > 100 µM | NCI/ADR-RES > 100 µM | M14 > 100 µM | UACC-257 > 100 µM | NCI-H522 > 100 µM | MDA-MB-231 > 100 µM | OVCAR-5 > 100 µM | PC-3 > 100 µM | MCF7 > 100 µM

Brc1cccc(C2SCc3nc4ccccc4n32)c1 (configuration not stated)
inactive: LOX IMVI 14.6 µM | OVCAR-4 19 µM | RXF 393 5.93 µM | IGROV-1 21.7 µM | SW-620 31.8 µM | COLO 205 19.1 µM | HL-60 7.94 µM | CAKI-1 30.2 µM | LXFL 529 20.6 µM | M14 22.5 µM | NCI-H522 13.9 µM | OVCAR-5 6.01 µM

N#C/C(=C/N1C(=O)/C(=C/c2ccc([N+](=O)[O-])cc2)SC1=S)c1nc2ccccc2s1
inactive: LOX IMVI 26.4 µM | OVCAR-4 29.7 µM | RXF 393 19.3 µM | IGROV-1 12.3 µM | A498 12.1 µM | SW-620 34.8 µM | COLO 205 14.5 µM | HL-60 17.5 µM | CAKI-1 30.8 µM | HCC 2998 14.2 µM | Hs-578T 29.6 µM | NCI/ADR-RES 32.7 µM | M14 27.8 µM | UACC-257 14.2 µM | NCI-H522 12.6 µM | MDA-MB-231 12.8 µM | OVCAR-5 29.1 µM | PC-3 13.8 µM | MCF7 15.6 µM

CC(=NNC(=S)Nc1ccccc1)c1cccc(C(C)=NNC(=S)Nc2ccccc2)n1
inactive: LOX IMVI 2.24 µM | OVCAR-4 3.66 µM | RXF 393 3.01 µM | IGROV-1 2.08 µM | A498 7.55 µM | SW-620 3.66 µM | COLO 205 2.48 µM | CAKI-1 1.79 µM | HCC 2998 3.64 µM | Hs-578T > 37.8 µM | NCI/ADR-RES 1.61 µM | M14 1.97 µM | UACC-257 8.83 µM | NCI-H522 5.35 µM | MDA-MB-231 4.62 µM | OVCAR-5 > 22 µM | PC-3 5.21 µM | MCF7 3.11 µM
active: HL-60 0.189 µM

O=C(O)CCc1nc2ccccc2[nH]1 [PROCODAZOLE]
inactive: LOX IMVI > 100 µM | OVCAR-4 > 100 µM | RXF 393 > 100 µM | IGROV-1 > 100 µM | A498 > 100 µM | SW-620 > 100 µM | COLO 205 > 100 µM | HL-60 > 100 µM | CAKI-1 > 100 µM | HCC 2998 > 100 µM | Hs-578T > 100 µM | NCI/ADR-RES > 100 µM | M14 > 100 µM | UACC-257 > 100 µM | NCI-H522 > 100 µM | MDA-MB-231 > 100 µM | OVCAR-5 > 100 µM | PC-3 > 100 µM | MCF7 > 100 µM

COc1ncc(C#CC(=O)c2ccccc2)c(OC)n1
active: LOX IMVI 0.815 µM | MCF7 0.378 µM
inactive: OVCAR-4 4.7 µM | RXF 393 1.85 µM | IGROV-1 2.1 µM | A498 17.9 µM | SW-620 1.63 µM | COLO 205 1.99 µM | HL-60 1.23 µM | CAKI-1 2.76 µM | HCC 2998 6.12 µM | Hs-578T 24.5 µM | NCI/ADR-RES 2.72 µM | M14 2.22 µM | UACC-257 5.64 µM | NCI-H522 1.27 µM | MDA-MB-231 1.95 µM | OVCAR-5 5.04 µM | PC-3 1.89 µM

Source: ChEMBL document CHEMBL1201862, “PubChem BioAssay data set” (2004)
